Assay: Stomach homogenate conversion assay
Assay type: in vitro ADME, mice
Conditions: 50 μg/mL, 20 h

Compound | eAUC0–20h in stomach homogenate, prodrug
COC(=O)NNC(=O)c1ccncc1.Cl [prodrug 1a] | 412,453 ng·h/mL
Cl.O=C(NNC(=O)c1ccncc1)OCc1ccccc1 [prodrug 1h] | 691,560 ng·h/mL

Same assay, conditions: 50 μg/mL, ex vivo

Compound | percentage of prodrug remaining after 20 h of incubation, stomach homogenate
COC(=O)NNC(=O)c1ccncc1.Cl [prodrug 1a] | 1%
Cl.O=C(NNC(=O)c1ccncc1)OCc1ccccc1 [prodrug 1h] | 29%

Assay: Intestinal homogenate conversion assay
Assay type: in vitro ADME, mice
Conditions: 50 μg/mL, 20 h

Compound | eAUC0–20h in intestinal homogenate, prodrug
COC(=O)NNC(=O)c1ccncc1.Cl [prodrug 1a] | 908,764 ng·h/mL
Cl.O=C(NNC(=O)c1ccncc1)OCc1ccccc1 [prodrug 1h] | 761,596 ng·h/mL

Same assay, conditions: 50 μg/mL, ex vivo

Compound | percentage of prodrug remaining after 20 h of incubation, intestine homogenate
COC(=O)NNC(=O)c1ccncc1.Cl [prodrug 1a] | 85%
Cl.O=C(NNC(=O)c1ccncc1)OCc1ccccc1 [prodrug 1h] | 43%

Assay: Lipophilicity (logD) by shake flask method
Conditions: not given

Compound | logD
COC(=O)NNC(=O)c1ccncc1.Cl [prodrug 1a] | -0.2
CCOC(=O)NNC(=O)c1ccncc1.Cl [prodrug 1b] | -0.01
CCCOC(=O)NNC(=O)c1ccncc1.Cl [prodrug 1c] | 0.2
Cl.O=C(NNC(=O)c1ccncc1)OCc1ccccc1 [prodrug 1h] | 1.1

Assay: Aqueous stability in acidic and basic buffer (HPLC)
Conditions: acidic buffer, post 24 h of incubation

Compound | chemical stability, pH (3.0): percentage of parent remaining
COC(=O)NNC(=O)c1ccncc1.Cl [prodrug 1a] | 100.0%
Cl.O=C(NNC(=O)c1ccncc1)OCc1ccccc1 [prodrug 1h] | 100.0%

Same assay, conditions: basic buffer, post 24 h of incubation

Compound | chemical stability, pH (7.6): percentage of parent remaining
COC(=O)NNC(=O)c1ccncc1.Cl [prodrug 1a] | 100.0%
CCOC(=O)NNC(=O)c1ccncc1.Cl [prodrug 1b] | 100.0%
CCCOC(=O)NNC(=O)c1ccncc1.Cl [prodrug 1c] | 100.0%
Cl.O=C(NNC(=O)c1ccncc1)OCc1ccccc1 [prodrug 1h] | 100.0%

Assay: Bioconversion of prodrugs in plasma, ex vivo (mice)
Conditions: 200 μg/mL, 37 °C, ex vivo

Compound | % of prodrug remaining at 20 h, mice plasma
COC(=O)NNC(=O)c1ccncc1.Cl [prodrug 1a] | 70.5%
CCOC(=O)NNC(=O)c1ccncc1.Cl [prodrug 1b] | 13.8%

Same assay, conditions: 200 μg/mL, 20 h ex vivo incubation

Compound | eAUC20m–20h in mice plasma, prodrug
COC(=O)NNC(=O)c1ccncc1.Cl [prodrug 1a] | 1650 ± 930 ng·h/mL
CCOC(=O)NNC(=O)c1ccncc1.Cl [prodrug 1b] | 1214 ± 758 ng·h/mL
CCCOC(=O)NNC(=O)c1ccncc1.Cl [prodrug 1c] | 551 ± 81 ng·h/mL
Cl.O=C(NNC(=O)c1ccncc1)OCc1ccccc1 [prodrug 1h] | 87 ± 85 ng·h/mL

Assay: Bioconversion of prodrugs in plasma, ex vivo (human)
Conditions: 200 μg/mL, 37 °C, ex vivo

Compound | % of prodrug remaining at 20 h, human plasma
COC(=O)NNC(=O)c1ccncc1.Cl [prodrug 1a] | 40.1%
CCOC(=O)NNC(=O)c1ccncc1.Cl [prodrug 1b] | 47.5%

Same assay, conditions: 200 μg/mL, 20 h ex vivo incubation

Compound | eAUC20m–20h in human plasma, prodrug
COC(=O)NNC(=O)c1ccncc1.Cl [prodrug 1a] | 1418 ± 824 ng·h/mL
CCOC(=O)NNC(=O)c1ccncc1.Cl [prodrug 1b] | 1402 ± 957 ng·h/mL
CCCOC(=O)NNC(=O)c1ccncc1.Cl [prodrug 1c] | 860 ± 131 ng·h/mL
Cl.O=C(NNC(=O)c1ccncc1)OCc1ccccc1 [prodrug 1h] | 465 ± 426 ng·h/mL

Assay: Chemical stability in neat DMSO (UV spectrophotometer)
Conditions: post 24 h of incubation

Compound | chemical stability, DMSO: percentage of parent remaining
COC(=O)NNC(=O)c1ccncc1.Cl [prodrug 1a] | 100.0%
CCOC(=O)NNC(=O)c1ccncc1.Cl [prodrug 1b] | 100.0%
CCCOC(=O)NNC(=O)c1ccncc1.Cl [prodrug 1c] | 100.0%
Cl.O=C(NNC(=O)c1ccncc1)OCc1ccccc1 [prodrug 1h] | 100.0%

Assay: In vivo plasma exposure after a single oral dose (RACE-PK)
Conditions: single oral dose 10 mg/kg

Compound | plasma concentration of AcINH at 20 min | plasma concentration of in vivo released free INH at 20 min
COC(=O)NNC(=O)c1ccncc1.Cl [prodrug 1a] | BLQ | BLQ
CCOC(=O)NNC(=O)c1ccncc1.Cl [prodrug 1b] | BLQ | 
CCCOC(=O)NNC(=O)c1ccncc1.Cl [prodrug 1c] | BLQ | BLQ

Same assay, conditions: single oral dose 10 mg/kg, n=3

Compound | plasma eAUC20m–120m (AcINH) | plasma eAUC20m–120m (INH)
COC(=O)NNC(=O)c1ccncc1.Cl [prodrug 1a] | BLQ ^d | BLQ ^d
CCOC(=O)NNC(=O)c1ccncc1.Cl [prodrug 1b] | BLQ ^d | 
CCCOC(=O)NNC(=O)c1ccncc1.Cl [prodrug 1c] | BLQ ^d | 

Same assay, conditions: single oral dose 10 mg/kg, n=3; 10 mg/kg

Compound | plasma eAUC20m–120m (INH)
CCCOC(=O)NNC(=O)c1ccncc1.Cl [prodrug 1c] | BLQ and BLQ ^d

Assay: Complete pharmacokinetic analysis after a single oral dose
Conditions: Balb/C, mouse, plasma, po, 10 mg/kg of INH (prodrugs at molar equivalent)

Compound | concentration at 0.33 h | concentration at 1 h | concentration at 2 h | concentration at 4 h | concentration at 6 h | concentration at 24 h
COC(=O)NNC(=O)c1ccncc1.Cl [prodrug 1a] | 148 µg/mL | 63200 ng/mL | 31400 ng/mL | 1400 ng/mL | 571 ng/mL | 208 ng/mL
Cl.O=C(NNC(=O)c1ccncc1)OCc1ccccc1 [prodrug 1h] | 6.13 µg/mL | 433 ng/mL | 409 ng/mL | 884 ng/mL | 128 ng/mL | 120 ng/mL

Same assay, conditions: single oral dose, 1 h

Compound | plasma concentration of free INH (mean) | plasma concentration of released AcINH (mean)
COC(=O)NNC(=O)c1ccncc1.Cl [prodrug 1a] | BLQ | BLQ

Same assay, conditions: single oral dose, 2 h

Compound | plasma concentration of free INH (mean) | plasma concentration of released AcINH (mean)
COC(=O)NNC(=O)c1ccncc1.Cl [prodrug 1a] | BLQ | BLQ

Same assay, conditions: single oral dose, 4 h

Compound | plasma concentration of free INH (mean) | plasma concentration of released AcINH (mean) | plasma concentration of released INA (mean)
COC(=O)NNC(=O)c1ccncc1.Cl [prodrug 1a] | BLQ | BLQ | BLQ
Cl.O=C(NNC(=O)c1ccncc1)OCc1ccccc1 [prodrug 1h] | BLQ | BLQ | BLQ

Same assay, conditions: single oral dose, 6 h

Compound | plasma concentration of free INH (mean) | plasma concentration of released AcINH (mean) | plasma concentration of released INA (mean)
COC(=O)NNC(=O)c1ccncc1.Cl [prodrug 1a] | BLQ | BLQ | BLQ
Cl.O=C(NNC(=O)c1ccncc1)OCc1ccccc1 [prodrug 1h] | BLQ | BLQ | BLQ

Same assay, conditions: single oral dose, 24 h

Compound | plasma concentration of free INH (mean) | plasma concentration of released AcINH (mean) | plasma concentration of released INA (mean)
COC(=O)NNC(=O)c1ccncc1.Cl [prodrug 1a] | BLQ | BLQ | BLQ
Cl.O=C(NNC(=O)c1ccncc1)OCc1ccccc1 [prodrug 1h] | BLQ | BLQ | BLQ

Same assay, conditions: single oral dose, molar equivalent of 10 mg/kg INH

Compound | Vd, unchanged prodrug
COC(=O)NNC(=O)c1ccncc1.Cl [prodrug 1a] | 77 ± 4 mL/kg
Cl.O=C(NNC(=O)c1ccncc1)OCc1ccccc1 [prodrug 1h] | 2899 ± 300 mL/kg

Same assay, conditions: single oral dose; all time points 0.083–24 h

Compound | plasma level of AcHz formed in vivo
COC(=O)NNC(=O)c1ccncc1.Cl [prodrug 1a] | BLQ
Cl.O=C(NNC(=O)c1ccncc1)OCc1ccccc1 [prodrug 1h] | BLQ

Assay: Aqueous solubility in Tris HCl buffer (pH 7.4), shake flask method
Conditions: Tris HCl buffer, 37 °C, pH 7.4, aqueous buffer, thermodynamic from solid

Compound | solubility at 24 h
COC(=O)NNC(=O)c1ccncc1.Cl [prodrug 1a] | 213 mg/mL
CCOC(=O)NNC(=O)c1ccncc1.Cl [prodrug 1b] | 326 mg/mL
CCCOC(=O)NNC(=O)c1ccncc1.Cl [prodrug 1c] | 86 mg/mL
Cl.O=C(NNC(=O)c1ccncc1)OCc1ccccc1 [prodrug 1h] | 0.4 mg/mL

Assay: In vivo plasma exposure after repetitive single oral dosing for 10 consecutive days
Conditions: 10th dose, oral, molar equivalent of 10 mg/kg INH

Compound | eAUC20m–6h (AcHz)
COC(=O)NNC(=O)c1ccncc1.Cl [prodrug 1a] | BLQ ^d
CCOC(=O)NNC(=O)c1ccncc1.Cl [prodrug 1b] | BLQ ^d
CCCOC(=O)NNC(=O)c1ccncc1.Cl [prodrug 1c] | BLQ ^d
Cl.O=C(NNC(=O)c1ccncc1)OCc1ccccc1 [prodrug 1h] | BLQ ^d

— article PMC12395308 (ACS Central Science, 2025)
